Experimental data published in PubChem BioAssay (NCI).
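Method: 48-hour compound exposure of cells in 96-well plates, five concentrations, linear interpolation of endpoints. Here, GI50 denotes the concentration required for 50% inhibition of growth. TGI: total growth inhibition.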

Key:
Experiment in all cases: growth of human tumour cells (NCI), 48 h
[1] = test system: SK-MEL-5 melanoma
[2] = test system: SF-295 CNS
[3] = test system: UACC-257 melanoma
[4] = test system: EKVX NSCLC
[5] = test system: K-562 leukemia
[6] = test system: NCI/ADR-RES ovarian
[7] = test system: SNB-19 CNS
[8] = test system: M14 melanoma
[9] = test system: MDA-MB-231 breast
[10] = test system: MOLT-4 leukemia
[11] = test system: NCI-H23 lung
[12] = test system: KM12 colon
[13] = test system: OVCAR-8 ovarian
[14] = test system: NCI-H460 lung
[15] = test system: 786-0 renal
[16] = test system: SK-MEL-28 melanoma
[17] = test system: BT-549 breast
[18] = test system: OVCAR-4 ovarian
[19] = test system: SK-OV-3 ovarian
[20] = test system: HS 578T breast
[21] = test system: UO-31 renal
[22] = test system: T-47D breast
[23] = test system: TK-10 renal
[24] = test system: OVCAR-5 ovarian
[25] = test system: A498 renal
[26] = test system: LOX IMVI melanoma
[27] = test system: NCI-H522 lung
[28] = test system: HCT-116 colon
[29] = test system: MALME-3M melanoma
[30] = test system: CAKI-1 renal
[31] = test system: MDA-MB-435
[32] = test system: HT29 colon
[33] = test system: OVCAR-3 ovarian
[34] = test system: SF-268 CNS
[35] = test system: SW-620 colon
[36] = test system: ACHN renal
[37] = test system: SN12C renal
[38] = test system: A549 NSCLC
[39] = test system: NCI-H226 lung
[40] = test system: UACC-62 melanoma
[41] = test system: DU-145 prostate
[42] = test system: IGROV1 ovarian
[43] = test system: HCC-2998 colon
[44] = test system: PC-3 prostate
[45] = test system: HOP-92 NSCLC
[46] = test system: HOP-62 NSCLC
[47] = test system: CCRF-CEM leukemia
[48] = test system: U251 CNS
[49] = test system: COLO 205 colon
[50] = test system: SF-539 CNS
[51] = test system: HCT-15 colon
[52] = test system: MCF7 breast
[53] = test system: SK-MEL-2 melanoma
[54] = test system: SNB-75 CNS
[55] = test system: RXF 393 renal
[56] = test system: RPMI-8226 leukemia
[57] = test system: HL-60(TB) leukemia
[58] = test system: SR leukemia

## COc1cc2c3c(n(CCCCNC(=O)OCC4c5ccccc5-c5ccccc54)c(=O)c2cc1OC)-c1cc2c(cc1C3=O)OCO2
[1]
  GI50: 23.4 µM
  TGI: > 100 µM
[2]
  GI50: > 100 µM
  TGI: > 100 µM
[3]
  GI50: > 100 µM
  TGI: > 100 µM
[4]
  GI50: 87.2 µM
  TGI: > 100 µM
[5]
  GI50: 3.05 µM
  TGI: 27.4 µM
[6]
  GI50: 58.1 µM
  TGI: > 100 µM
[7]
  GI50: 81.6 µM
  TGI: > 100 µM
[8]
  GI50: 25.9 µM
  TGI: > 100 µM
[9]
  GI50: 26.5 µM
  TGI: > 100 µM
[10]
  GI50: 0.281 µM
  TGI: 1.81 µM
[11]
  GI50: 26.4 µM
  TGI: > 100 µM
[12]
  GI50: 22 µM
  TGI: > 100 µM
[13]
  GI50: 35 µM
  TGI: > 100 µM
[14]
  GI50: 2.56 µM
  TGI: 54.2 µM
[15]
  GI50: 4.67 µM
  TGI: 28.1 µM
[16]
  GI50: > 100 µM
  TGI: > 100 µM
[17]
  GI50: 79.1 µM
  TGI: > 100 µM
[18]
  GI50: > 100 µM
  TGI: > 100 µM
[19]
  GI50: > 100 µM
  TGI: > 100 µM
[20]
  GI50: 80.7 µM
  TGI: > 100 µM
[21]
  GI50: 49.3 µM
  TGI: > 100 µM
[22]
  GI50: 95.8 µM
  TGI: > 100 µM
[23]
  GI50: 56.3 µM
  TGI: > 100 µM
[24]
  GI50: 17.4 µM
  TGI: 51 µM
[25]
  GI50: > 100 µM
  TGI: > 100 µM
[26]
  GI50: 7.08 µM
  TGI: > 100 µM
[27]
  GI50: 11.1 µM
  TGI: > 100 µM
[28]
  GI50: 7.73 µM
  TGI: 33.6 µM
[29]
  GI50: > 100 µM
  TGI: > 100 µM
[30]
  GI50: 5.3 µM
  TGI: > 100 µM
[31]
  GI50: 64.9 µM
  TGI: > 100 µM
[32]
  GI50: 16.9 µM
  TGI: > 100 µM
[33]
  GI50: 19.8 µM
  TGI: 62.5 µM
[34]
  GI50: 6.7 µM
  TGI: > 100 µM
[35]
  GI50: 7.75 µM
  TGI: > 100 µM
[36]
  GI50: 5.8 µM
  TGI: 50.4 µM
[37]
  GI50: 10.7 µM
  TGI: 93 µM
[38]
  GI50: 17.4 µM
  TGI: > 100 µM
[39]
  GI50: 31.1 µM
  TGI: > 100 µM
[40]
  GI50: 45.7 µM
  TGI: > 100 µM
[41]
  GI50: 8.04 µM
  TGI: > 100 µM
[42]
  GI50: 17.9 µM
  TGI: > 100 µM
[43]
  GI50: 14.9 µM
  TGI: > 100 µM
[44]
  GI50: 13.7 µM
  TGI: 55.6 µM
[45]
  GI50: 1.49 µM
  TGI: 9.69 µM
[46]
  GI50: 5.62 µM
  TGI: 34 µM
[47]
  GI50: 2.75 µM
  TGI: > 100 µM
[48]
  GI50: 11.2 µM
  TGI: 65.3 µM
[49]
  GI50: 49.9 µM
  TGI: > 100 µM
[50]
  GI50: 6.42 µM
  TGI: 37.6 µM
[51]
  GI50: 12.9 µM
  TGI: 80.3 µM
[52]
  GI50: 0.554 µM
  TGI: 16.2 µM
[53]
  GI50: 70.4 µM
  TGI: > 100 µM
[54]
  GI50: 28.9 µM
  TGI: > 100 µM
[55]
  GI50: 15.9 µM
  TGI: 58.6 µM

## c1nc(SSc2ncnc3nc[nH]c23)c2[nH]cnc2n1
[1]
  TGI: 37.6 µM
[2]
  TGI: 43.7 µM
[3]
  TGI: > 100 µM
[4]
  TGI: > 100 µM
[5]
  TGI: > 100 µM
[6]
  TGI: > 30.5 µM
[7]
  TGI: > 100 µM
[8]
  TGI: > 68.7 µM
[9]
  TGI: > 56.5 µM
[10]
  TGI: > 40.4 µM
[11]
  TGI: 9.54 µM
[12]
  TGI: > 44.1 µM
[13]
  TGI: > 100 µM
[14]
  TGI: > 100 µM
[15]
  TGI: > 100 µM
[16]
  TGI: > 100 µM
[17]
  TGI: > 100 µM
[18]
  TGI: > 100 µM
[19]
  TGI: > 100 µM
[20]
  TGI: > 100 µM
[21]
  TGI: > 100 µM
[56]
  TGI: > 100 µM
[22]
  TGI: > 100 µM
[57]
  TGI: > 100 µM
[24]
  TGI: > 65.2 µM
[25]
  TGI: > 100 µM
[26]
  TGI: 20.4 µM
[27]
  TGI: > 100 µM
[28]
  TGI: > 100 µM
[29]
  TGI: 18.5 µM
[30]
  TGI: 1.07 µM
[31]
  TGI: > 85.3 µM
[32]
  TGI: > 100 µM
[33]
  TGI: > 33.6 µM
[34]
  TGI: > 29.2 µM
[58]
  TGI: > 41.6 µM
[35]
  TGI: > 100 µM
[36]
  TGI: > 100 µM
[37]
  TGI: > 73.3 µM
[38]
  TGI: > 100 µM
[39]
  TGI: > 100 µM
[40]
  TGI: 0.0568 µM
[41]
  TGI: > 100 µM
[42]
  TGI: > 100 µM
[44]
  TGI: > 100 µM
[45]
  TGI: > 100 µM
[46]
  TGI: > 100 µM
[47]
  TGI: > 100 µM
[48]
  TGI: > 100 µM
[49]
  TGI: > 100 µM
[50]
  TGI: > 100 µM
[51]
  TGI: > 100 µM
[53]
  TGI: > 100 µM
[54]
  TGI: > 100 µM
[55]
  TGI: > 100 µM
